From publication PMC10380446, “The Electronic Effects of 3-Methoxycarbonylcoumarin Substituents on Spectral, Antioxidant, and Protein Binding Properties” (International Journal of Molecular Sciences, 2023)

Biological target: T1, bovine serum albumin (BSA) (Bos taurus, UniProt P02769)
T1 construct: gene ALB; mature secreted protein
Assay: tryptophan fluorescence quenching, excitation […] nm
Assay type: binding
Conditions: double-log, natural logarithm of K, PBS, 300 K

T1 sequence (P02769 25-607): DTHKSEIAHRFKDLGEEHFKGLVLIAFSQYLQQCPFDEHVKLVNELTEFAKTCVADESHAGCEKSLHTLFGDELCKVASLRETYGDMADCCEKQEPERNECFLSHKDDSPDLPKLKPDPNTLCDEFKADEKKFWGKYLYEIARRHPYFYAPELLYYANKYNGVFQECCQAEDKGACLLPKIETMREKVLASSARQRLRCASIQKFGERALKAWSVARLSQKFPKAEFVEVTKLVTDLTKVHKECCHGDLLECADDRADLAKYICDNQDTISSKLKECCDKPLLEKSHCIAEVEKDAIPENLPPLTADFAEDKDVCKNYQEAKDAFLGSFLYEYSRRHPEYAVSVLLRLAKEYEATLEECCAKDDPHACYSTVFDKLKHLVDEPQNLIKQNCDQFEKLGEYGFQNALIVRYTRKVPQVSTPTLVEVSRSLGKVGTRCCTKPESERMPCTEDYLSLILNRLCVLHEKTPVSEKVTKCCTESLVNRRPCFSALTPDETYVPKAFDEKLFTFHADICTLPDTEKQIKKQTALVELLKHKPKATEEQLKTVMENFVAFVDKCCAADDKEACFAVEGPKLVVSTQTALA

Compound | lnK (covalent (suspected by the authors from new 480 nm peak), unreliable) | lnK
COC(=O)c1cc2cc(OC)ccc2oc1=O [6-OMe] | 12.62 ln (M^-1 not printed) | –
COC(=O)c1cc2cc([N+](=O)[O-])ccc2oc1=O [6-NO2] | – | 9.03 ln (M^-1 not printed)
COC(=O)c1cc2cc(Br)ccc2oc1=O [6-Br] | – | 9.78 ln (M^-1 not printed)
